{"source": "patent US20210267948A1", "about": "“TREATMENT OF CANCER” (CITY OF HOPE, priority 2017, published 2021)", "key": {"[1]": {"system": "HCC1937+BRCA1", "assay": "Microarray gene ontology enrichment, HCC1937+BRCA1", "assay_type": "cell-based, human", "conditions": "genes downregulated, HCC1937 + BRCA1-COH29 vs HCC1937 + BRCA1", "protocol": "FDR values were calculated using the method of Benjamini and Hochberg (28) from the distribution of ANOVA with Linear Contrastp-values. Gene ontology (GO) (29) enrichment analysis was performed within PARTEK® GENOMICS SUITE™, and GO categories were defined significant with a Fisher Exact test p-value<0.05.\nTo identify the mechanism through which COH29 preferentially lyses BRCA1-mutant human cancer cells, genome-wide microarray analysis was performed using the AFFYMETRIX® GENECHIP® microarray platform to identify the gene expression profiles and pathways affected by COH29 treatment. The RNA expression profile of COH29 treated HCC1937 breast cancer cells lacking BRCA1 was compared with that of COH29 treated HCC1937+BRCA1 cells. […] For example, DNA ligation involved in DNA repair is more strongly enriched in HCC1937 cells which may relate to the phenotypic effect."}, "[2]": {"system": "TOV112D xenograft tumors", "assay": "TOV112D mouse xenograft", "assay_type": "in vivo", "conditions": "oral 200, 300 or 400 mg/kg, 7 days", "protocol": "FIGS. 12A-12D depict the activity of COH29 in mouse xenografts. Cancer cells were implanted and allowed to grow at the subcutaneous site until the tumor was measurable. Subcutaneous xenograft growth curves for leukemic-(MOLT-4) mice treated for 12 days with oral COH29 in twice-daily dosing at 50 and 100 mg/kg (FIG. 12A) and for ovarian cancer bearing mice (TOV112D) treated for 7 days with 200, 300, or 400 mg/kg of oral COH29 (FIG. 12B) (shown are the average±SDs for 4 animals/group). FIG. 12C depicts the activity of RNR in MOLT-4 tumor xenografts from mice treated with vehicle (solutol-15) or 100 mg/kg of oral COH29 for 12 days. FIG. 12D depicts the effect of oral COH29 on intratumoral dTNP pools from MOLT-4 tumor xenografts."}, "[3]": {"system": "tumor xenografts", "assay": "Pilot tumor xenograft study", "assay_type": "in vivo", "conditions": "daily oral administration, IL2-rg(KO)/NOD-Scid mice", "excerpt": "Toxicity studies in rats and dogs at doses equivalent to 10× that dose have not shown toxicity at 10 or 21 days."}, "[4]": {"system": "human cancer cells resistant to gemcitabine, hydroxyurea or cisplatin", "assay": "Growth of drug-resistant human cancer cells", "assay_type": "cell-based", "conditions": "KB-Gem, KBHURs and others, 72 h", "protocol": "FIGS. 11A-11B depict the activity of COH29 in gemcitabine (KB-Gem) (FIG. 11A) and hydroxyurea (KBHURs) (FIG. 11B) resistant cell lines in 72 h toxicity assay. Hydroxyurea (concentration 2-50 mmol/L), gemcitabine (concentration 20-500 μmon), and COH29 (concentration 2-250 μmon) were used for real-time growth curves for KBHUR and gemcitabine, respectively, based on comparison of 72-h viability of hydroxyurea-resistant or gemcitabine-resistant cells to COH29."}, "[5]": {"system": "A549 cells", "assay": "DDR proteins in A549 cells (Western blot, immunofluorescence)", "assay_type": "cell-based, human", "protocol": "Immunofluorescence experiments were conducted as described previously (21,22). Specifically, A549 cells were grown on glass coverslips. After treatment with COH29 (1 or 10 μM) for 24 or 48 hours, cells were fixed with 4% paraformaldehyde for 10 min and permeabilized with TRITON™ X-100 (0.5%). The coverslips were washed with phosphate-buffered saline (PBS) and blocked with PBS-containing 2% bovine serum albumin (BSA), incubated with an Ab specific to FOXO3 or ATM-pS1981 or γ-H2AX or p53-pS15 (1:50-1:200 dilution), followed by Alexa 488-conjugated anti-rabbit or anti-mouse (1:200), Alexa 594-conjugated anti-goat (1:100) secondary Abs (Molecular Probes). Cells were incubated with 4′,6-diamidino-2-phenylindole (DAPI; Sigma) to stain the nuclei. Specific staining was visualized and images were captured with a Leica SP2 AOBS confocal laser scanning microscope. To measure foci-positive cells, ˜300 cells were used randomly captured by confocal microscopy. The percentages of considering foci-positive cells were calculated from cells containing at least five foci. Each error bar presented is the mean of standard deviation.\nFor subcellular fractionation, cells were trypsinized and washed with cold PBS solution twice. After centrifugation at 1,200 g for 5 min, cells were incubated in buffer (50 mM HEPES, pH 7.5, 150 mM NaCl, 1 mM EDTA) containing 0.2% NONIDET™ P-40 (NP-40), supplemented with protease inhibitors (5 μg/ml each of pepstatin, leupeptin, and aprotinin) and phosphatase inhibitors on ice for 5 min. Following centrifugation at 1,000 g for 5 min, the supernatant was collected (i.e., cytoplasmic fraction) and pellets were washed with the same buffer twice. The washed samples were extracted for 40 min on ice with fractionation buffer containing 0.5% NP-40 for nuclear fraction. […] Protein concentrations of all fractions were determined with Bio-Rad Protein Assay (Bio-Rad Laboratories, Hercules, Calif.). […] The immunoblots were visualized on film with the West-Q chemi-luminescence kit (GenDEPOT, Barker, Tex.)."}, "[6]": {"system": "EJ5 cells (NHEJ pathway)", "assay": "NHEJ repair GFP reporter (EJ5-GFP)", "assay_type": "cell-based", "conditions": "24 h", "protocol": "The EJ2 cells were generated to evaluate Alt-NHEJ through monitoring the fluorescence intensity of GFP, and EJ5 cells were used to determine NJEJ, as described previously (23). Cells were seeded into 6-well plate and treated with COH29 or cisplatin at different concentration for 24 hours. The cells were then trypsinized, washed, and analyzed by flow cytometry."}}}
{"smiles": "O=C(Nc1nc(-c2ccc(O)c(O)c2)c(-c2ccccc2)s1)c1ccc(O)c(O)c1", "note": "[COH29, N-(4-(3,4-dihydroxyphenyl)-5-phenylthiazol-2-yl)-3,4-dihydroxybenzamide]", "values": [{"measurement": "Genes (n): DNA ligation involved in DNA repair", "setting": "[1]", "result": 3}, {"measurement": "Genes (n): DNA repair", "setting": "[1]", "result": 44}, {"measurement": "Genes (n): DSB repair", "setting": "[1]", "result": 14}, {"measurement": "Genes (n): DSB repair via HR", "setting": "[1]", "result": 9}, {"measurement": "Genes (n): DSB repair via NHEJ", "setting": "[1]", "result": 3}, {"measurement": "xenograft tumor growth", "setting": "[2]", "result": "inhibited"}, {"measurement": "lowest dose observed to inhibit growth of tumor xenografts", "setting": "[3]", "result": 50, "unit": "mg/kg"}, {"measurement": "growth of resistant cancer cells", "setting": "[4]", "result": "suppresses the growth"}, {"measurement": "protein level of BRCA1 and Rad51 foci formation", "setting": "[5]; A549, 24 h", "result": "suppressed"}, {"measurement": "γ-H2AX, phospho-p53 and phospho-ATM in the nucleus", "setting": "[5]; A549, BRCA1 wild-type, 48 h", "result": "induced accumulation"}, {"measurement": "Rad51 expression in the nucleus", "setting": "[5]; A549, BRCA1 wild-type, Western analysis", "result": "downregulated"}, {"measurement": "NHEJ repair efficiency", "setting": "[6]", "result": "little effect"}]}
